Assay results as given in ChEMBL document CHEMBL5370572, “Coscinoderines A-J: Trisubstituted Pyridinium-Containing Norterpenoids Isolated from Coscinoderma bakusi, a Tropical Marine Sponge” (J Nat Prod, 2023).
Calls of active or inactive are those of the source. No cut-off for these calls is given here.

How the values were obtained:
HEK293 = experiment: Cytotoxicity against HEK293 cells assessed as reduction in cell proliferation at 1.25 to 80 uM measured after 48 hrs by MTS assay; assay type: toxicity, cell-based; details: human, hek293, 48 h, dose 1.25-80 µM
Micrococcus luteus [1] = experiment: Antibacterial activity against Micrococcus luteus KCTC 1915 assessed as inhibition of bacterial growth at 72.6 uM; assay type: functional, organism-based
Staphylococcus aureus = experiment: Antibacterial activity against Staphylococcus aureus ATCC 25923 assessed as inhibition of bacterial growth at 45.4 uM; assay type: functional, organism-based
Micrococcus luteus [2] = experiment: Antibacterial activity against Micrococcus luteus KCTC 1915 assessed as inhibition of bacterial growth at 75 uM; assay type: functional, organism-based

For CC1=C(CC/C(C)=C/CCCc2ccc(CC(=O)O)c[n+]2CCS(=O)(=O)O)C(C)(C)CCC1, the Activity (HEK293) was “Non-Toxic”.
With CC(C)=CCC/C(C)=C/CC/C(C)=C/CCCc1ccc(CC(=O)O)c[n+]1CC(=O)O the Activity (HEK293) was “Non-Toxic”.
In the case of C=C(C)[C@@]1(CC/C(C)=C/CCCc2ccc(CC(=O)O)c[n+]2C[C@@H](C)CC)CCC[C@H]1C, the Activity (HEK293) is reported as “Non-Toxic”, the inhibition (Micrococcus luteus [1]) is reported as “Active” and the inhibition (Staphylococcus aureus) is reported as “Active”.
C=C(C)[C@@]1(CC/C(C)=C/CCCc2ccc(CC(=O)O)c[n+]2CC(C)C)CCC[C@H]1C was tested, and the Activity (HEK293) was “Non-Toxic” and the inhibition (Micrococcus luteus [2]) was “Active”.
